Assay results from ChEMBL document CHEMBL1201862, “PubChem BioAssay data set” (2004).
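Test compounds were applied to cells in 96-well plates for 48 hours at 5 doses. GI50: concentration for 50% inhibition of growth.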 The source made the active and inactive calls. Cut-off read from the data, not from the text of the source: active = GI50 up to about 1.1 µM and inactive = higher.

Experiments:
Assay in all cases: NCI anticancer screen, dose series, 48 h
NCI-H226 = test system: NCI-H226
NCI-H23 = test system: NCI-H23
SNB-78 = test system: SNB-78
DMS-114 = test system: DMS-114
TK-10 = test system: TK-10
SNB-19 = test system: SNB-19
SN12C = test system: SN12C
KM-20L2 = test system: KM-20L2
UO-31 = test system: UO-31
A549 = test system: A549
CCRF-CEM = test system: CCRF-CEM
EKVX = test system: EKVX
HL-60 = test system: HL-60
XF498 = test system: XF498
NCI-H460 = test system: NCI-H460
RXF 393 = test system: RXF 393
HCC 2998 = test system: HCC 2998
HCT-15 = test system: HCT-15
SK-MEL-5 = test system: SK-MEL-5
OVCAR-3 = test system: OVCAR-3
LXFL 529 = test system: LXFL 529
HT-29 = test system: HT-29
Malme-3M = test system: Malme-3M
IGROV-1 = test system: IGROV-1
SK-OV-3 = test system: SK-OV-3
SK-MEL-28 = test system: SK-MEL-28
OVCAR-4 = test system: OVCAR-4
M14 = test system: M14
SK-MEL-2 = test system: SK-MEL-2
HCT-116 = test system: HCT-116
SF-268 = test system: SF-268
SNB-75 = test system: SNB-75
SF-539 = test system: SF-539
NCI-H522 = test system: NCI-H522
UACC-62 = test system: UACC-62
LOX IMVI = test system: LOX IMVI
SW-620 = test system: SW-620
M19-MEL = test system: M19-MEL
DMS-273 = test system: DMS-273
786-0 = test system: 786-0
OVCAR-5 = test system: OVCAR-5
MOLT-4 = test system: MOLT-4
HOP-18 = test system: HOP-18
RPMI-8226 = test system: RPMI-8226
UACC-257 = test system: UACC-257
COLO 205 = test system: COLO 205
HOP-62 = test system: HOP-62
OVCAR-8 = test system: OVCAR-8
K562 = test system: K562
DLD-1 = test system: DLD-1
SF-295 = test system: SF-295
KM12 = test system: KM12
CAKI-1 = test system: CAKI-1
ACHN = test system: ACHN
U-251 = test system: U-251
SR = test system: SR

For `Clc1ccc(-c2nnc(-c3nn(-c4ccccc4)c4nc5ccccc5nc34)o2)cc1`, the GI50 (NCI-H226) was 76 µM (inactive), the GI50 (NCI-H23) was 42.4 µM (inactive) and the GI50 (SNB-78) was > 100 µM (inactive). The GI50 (DMS-114) was 26.1 µM (inactive), the GI50 (TK-10) was > 100 µM (inactive) and the GI50 (SNB-19) was > 100 µM (inactive). The GI50 (SN12C) was > 100 µM (inactive), the GI50 (KM-20L2) was > 100 µM (inactive) and the GI50 (UO-31) was > 100 µM (inactive). For the same compound, the GI50 (A549) was > 100 µM (inactive), the GI50 (CCRF-CEM) was 28.2 µM (inactive) and the GI50 (EKVX) was > 100 µM (inactive). For the same compound, the GI50 (HL-60) was 22.5 µM (inactive), the GI50 (XF498) was 13 µM (inactive) and the GI50 (NCI-H460) was > 100 µM (inactive). The GI50 (RXF 393) was 93.3 µM (inactive), the GI50 (HCC 2998) was > 100 µM (inactive) and the GI50 (HCT-15) was 55 µM. For the same compound, the GI50 (SK-MEL-5) was 12.9 µM (inactive), the GI50 (OVCAR-3) was 34.1 µM (inactive) and the GI50 (LXFL 529) was 27.2 µM (inactive). For the same compound, the GI50 (HT-29) was > 100 µM (inactive), the GI50 (Malme-3M) was 84.3 µM (inactive) and the GI50 (IGROV-1) was 65.3 µM (inactive). The GI50 (SK-OV-3) was > 100 µM (inactive), the GI50 (SK-MEL-28) was > 100 µM (inactive) and the GI50 (OVCAR-4) was 28 µM (inactive). The GI50 (M14) was 48.3 µM (inactive), the GI50 (SK-MEL-2) was > 100 µM (inactive) and the GI50 (HCT-116) was 35.9 µM (inactive). The GI50 (SF-268) was 69.3 µM (inactive), the GI50 (SNB-75) was 95.1 µM (inactive) and the GI50 (SF-539) was > 100 µM (inactive). For the same compound, the GI50 (NCI-H522) was > 100 µM (inactive), the GI50 (UACC-62) was 67.8 µM (inactive) and the GI50 (LOX IMVI) was > 100 µM (inactive). For the same compound, the GI50 (SW-620) was 62.4 µM (inactive), the GI50 (M19-MEL) was 70.6 µM (inactive) and the GI50 (DMS-273) was 47.5 µM (inactive). For the same compound, the GI50 (786-0) was > 100 µM (inactive), the GI50 (OVCAR-5) was > 100 µM (inactive) and the GI50 (MOLT-4) was 26.9 µM (inactive). For the same compound, the GI50 (HOP-18) was > 100 µM (inactive), the GI50 (RPMI-8226) was 24.7 µM (inactive) and the GI50 (UACC-257) was 67.5 µM (inactive). The GI50 (COLO 205) was > 100 µM (inactive), the GI50 (HOP-62) was > 100 µM (inactive) and the GI50 (OVCAR-8) was 82.8 µM (inactive). For the same compound, the GI50 (K562) was 38.2 µM (inactive), the GI50 (DLD-1) was 18.9 µM (inactive) and the GI50 (SF-295) was > 100 µM (inactive). The GI50 (KM12) was > 100 µM (inactive), the GI50 (CAKI-1) was > 100 µM (inactive) and the GI50 (ACHN) was > 100 µM (inactive). For the same compound, the GI50 (U-251) was 84.7 µM (inactive).

`O=C(Cc1ccccc1)NN1C(=O)C(Cl)C1c1cccc(O)c1` (stereo not drawn) was tested, and the GI50 (NCI-H226) was 21.7 µM (inactive), the GI50 (NCI-H23) was 17.5 µM (inactive) and the GI50 (SNB-78) was 15.8 µM (inactive). For the same compound, the GI50 (DMS-114) was 13.8 µM (inactive), the GI50 (TK-10) was 18.9 µM (inactive) and the GI50 (SNB-19) was 42.7 µM (inactive). For the same compound, the GI50 (SN12C) was 18.5 µM (inactive), the GI50 (KM-20L2) was 15.1 µM (inactive) and the GI50 (UO-31) was 15.9 µM (inactive). The GI50 (A549) was 25.1 µM (inactive), the GI50 (CCRF-CEM) was 3.06 µM (inactive) and the GI50 (EKVX) was 18.6 µM (inactive). The GI50 (HL-60) was 11.8 µM (inactive), the GI50 (XF498) was 20.1 µM (inactive) and the GI50 (NCI-H460) was 15.3 µM (inactive). For the same compound, the GI50 (RXF 393) was 18 µM (inactive), the GI50 (HCC 2998) was 20.2 µM (inactive) and the GI50 (HCT-15) was 18.7 µM. The GI50 (OVCAR-3) was 14.6 µM (inactive), the GI50 (LXFL 529) was 10.6 µM (inactive) and the GI50 (HT-29) was 16.7 µM (inactive). For the same compound, the GI50 (Malme-3M) was 31.6 µM (inactive), the GI50 (IGROV-1) was 17.2 µM (inactive) and the GI50 (SK-OV-3) was 28.2 µM (inactive). For the same compound, the GI50 (SK-MEL-28) was 18.4 µM (inactive), the GI50 (OVCAR-4) was 17.7 µM (inactive) and the GI50 (M14) was 15.3 µM (inactive). For the same compound, the GI50 (SK-MEL-2) was 27 µM (inactive), the GI50 (HCT-116) was 13.6 µM (inactive) and the GI50 (SF-268) was 21.1 µM (inactive). The GI50 (SNB-75) was 26.5 µM (inactive), the GI50 (NCI-H522) was 9.23 µM (inactive) and the GI50 (UACC-62) was > 10 µM (inactive). For the same compound, the GI50 (LOX IMVI) was 13.5 µM (inactive), the GI50 (SW-620) was 5.2 µM (inactive) and the GI50 (M19-MEL) was 18 µM (inactive). For the same compound, the GI50 (DMS-273) was 16.1 µM (inactive), the GI50 (786-0) was 13.2 µM (inactive) and the GI50 (OVCAR-5) was 14.4 µM (inactive). For the same compound, the GI50 (MOLT-4) was 7.69 µM (inactive), the GI50 (HOP-18) was 20.6 µM (inactive) and the GI50 (RPMI-8226) was 2.84 µM (inactive). The GI50 (UACC-257) was 18.2 µM (inactive), the GI50 (COLO 205) was 18.4 µM (inactive) and the GI50 (HOP-62) was 27.2 µM (inactive). The GI50 (OVCAR-8) was 14 µM (inactive), the GI50 (K562) was 6.27 µM (inactive) and the GI50 (SR) was 3.58 µM (inactive). For the same compound, the GI50 (DLD-1) was 14.8 µM (inactive), the GI50 (SF-295) was 16.7 µM (inactive) and the GI50 (CAKI-1) was 17.9 µM (inactive). For the same compound, the GI50 (ACHN) was 16.4 µM (inactive) and the GI50 (U-251) was 11.9 µM (inactive).
